According to ChEMBL document CHEMBL1201862, “PubChem BioAssay data set” (2004):
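These data come from cells grown in 96-well plates and exposed to compound for 48 hours at five concentrations. GI50 marks 50% less growth.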 Active and inactive are the calls of the source. Rule as the data show it: active = GI50 up to about 1.1 µM and inactive = higher.

What was measured:
Assay in all cases: growth of human tumour cells (NCI), 48 h
[1] = system: KM-20L2
[2] = system: NCI-H460
[3] = system: SNB-78
[4] = system: NCI-H23
[5] = system: Malme-3M
[6] = system: OVCAR-8
[7] = system: DLD-1
[8] = system: HT-29
[9] = system: A549
[10] = system: CCRF-CEM
[11] = system: RXF 393
[12] = system: XF498
[13] = system: OVCAR-5
[14] = system: UO-31
[15] = system: DU-145
[16] = system: M14
[17] = system: KM12
[18] = system: M19-MEL
[19] = system: U-251
[20] = system: SK-OV-3
[21] = system: HOP-92
[22] = system: SF-268
[23] = system: HCC 2998
[24] = system: COLO 205
[25] = system: OVCAR-4
[26] = system: HCT-15
[27] = system: TK-10
[28] = system: UACC-257
[29] = system: LXFL 529
[30] = system: MOLT-4
[31] = system: NCI/ADR-RES
[32] = system: SNB-19
[33] = system: SK-MEL-28
[34] = system: MDA-N
[35] = system: ACHN
[36] = system: HOP-62
[37] = system: MCF7
[38] = system: HCT-116
[39] = system: SW-620
[40] = system: LOX IMVI
[41] = system: SNB-75
[42] = system: PC-3
[43] = system: HOP-18
[44] = system: NCI-H522
[45] = system: DMS-114
[46] = system: SF-539
[47] = system: OVCAR-3
[48] = system: A498
[49] = system: HL-60
[50] = system: UACC-62
[51] = system: SN12C
[52] = system: CAKI-1
[53] = system: SK-MEL-5
[54] = system: IGROV-1
[55] = system: SF-295
[56] = system: BT-549
[57] = system: SK-MEL-2
[58] = system: NCI-H226
[59] = system: Hs-578T
[60] = system: DMS-273
[61] = system: 786-0
[62] = system: EKVX
[63] = system: SR
[64] = system: RPMI-8226
[65] = system: MDA-MB-435
[66] = system: T47D
[67] = system: K562

Q: `COC(=O)c1ccc(NCc2cc(O)ccc2O)cc1` was tested. Which GI50 [1] did it give?
A: 28.4 µM (inactive)

Q: And the GI50 [2]?
A: 23.6 µM (inactive)

Q: And the GI50 [3]?
A: 15.2 µM (inactive)

Q: And the GI50 [4]?
A: 15.4 µM (inactive)

Q: What about the GI50 [5] of the same molecule?
A: 6.71 µM (inactive)

Q: And the GI50 [6]?
A: 11.6 µM (inactive)

Q: What about the GI50 [7] of the same molecule?
A: 18.1 µM (inactive)

Q: What about the GI50 [8] of the same molecule?
A: 23.1 µM (inactive)

Q: And the GI50 [9]?
A: 14.5 µM (inactive)

Q: What about the GI50 [10] of the same molecule?
A: 1.51 µM (inactive)

Q: What about the GI50 [11] of the same molecule?
A: 6.73 µM (inactive)

Q: And the GI50 [12]?
A: 2.96 µM (inactive)

Q: What about the GI50 [13] of the same molecule?
A: 15 µM (inactive)

Q: What about the GI50 [14] of the same molecule?
A: 8 µM (inactive)

Q: What about the GI50 [15] of the same molecule?
A: 12.4 µM (inactive)

Q: And the GI50 [16]?
A: 18 µM (inactive)

Q: What about the GI50 [17] of the same molecule?
A: 12.4 µM (inactive)

Q: What about the GI50 [18] of the same molecule?
A: 16.7 µM (inactive)

Q: And the GI50 [19]?
A: 9.79 µM (inactive)

Q: What about the GI50 [20] of the same molecule?
A: 14 µM (inactive)

Q: And the GI50 [21]?
A: 13.3 µM (inactive)

Q: What about the GI50 [22] of the same molecule?
A: 11.2 µM (inactive)

Q: What about the GI50 [23] of the same molecule?
A: 14.4 µM (inactive)

Q: And the GI50 [24]?
A: 12.6 µM (inactive)

Q: What about the GI50 [25] of the same molecule?
A: 11.5 µM (inactive)

Q: What about the GI50 [26] of the same molecule?
A: 10.2 µM

Q: What about the GI50 [27] of the same molecule?
A: 17.5 µM (inactive)

Q: And the GI50 [28]?
A: 14.4 µM (inactive)

Q: What about the GI50 [29] of the same molecule?
A: 5.06 µM (inactive)

Q: And the GI50 [30]?
A: 3.19 µM (inactive)

Q: And the GI50 [31]?
A: 3.08 µM (inactive)

Q: What about the GI50 [32] of the same molecule?
A: 22.7 µM (inactive)

Q: And the GI50 [33]?
A: 18.9 µM (inactive)

Q: And the GI50 [34]?
A: 5.31 µM (inactive)

Q: What about the GI50 [35] of the same molecule?
A: 10.2 µM (inactive)

Q: And the GI50 [36]?
A: 15.9 µM (inactive)

Q: What about the GI50 [37] of the same molecule?
A: 6.21 µM (inactive)

Q: What about the GI50 [38] of the same molecule?
A: 17.4 µM (inactive)

Q: What about the GI50 [39] of the same molecule?
A: 9.18 µM (inactive)

Q: And the GI50 [40]?
A: 10.2 µM (inactive)

Q: What about the GI50 [41] of the same molecule?
A: 15.3 µM (inactive)

Q: What about the GI50 [42] of the same molecule?
A: 4.39 µM (inactive)

Q: And the GI50 [43]?
A: 14.2 µM (inactive)

Q: And the GI50 [44]?
A: 0.841 µM (active)

Q: And the GI50 [45]?
A: 3.52 µM (inactive)

Q: And the GI50 [46]?
A: 5.46 µM (inactive)

Q: And the GI50 [47]?
A: 10.9 µM (inactive)

Q: And the GI50 [48]?
A: 16.8 µM (inactive)

Q: What about the GI50 [49] of the same molecule?
A: 1.69 µM (inactive)

Q: What about the GI50 [50] of the same molecule?
A: 10.4 µM (inactive)

Q: And the GI50 [51]?
A: 16.5 µM (inactive)

Q: What about the GI50 [52] of the same molecule?
A: 21.3 µM (inactive)

Q: And the GI50 [53]?
A: 9.71 µM (inactive)

Q: What about the GI50 [54] of the same molecule?
A: 9.89 µM (inactive)

Q: And the GI50 [55]?
A: 18.2 µM (inactive)

Q: What about the GI50 [56] of the same molecule?
A: 1.04 µM (active)

Q: And the GI50 [57]?
A: 16 µM (inactive)

Q: And the GI50 [58]?
A: 8.38 µM (inactive)

Q: And the GI50 [59]?
A: 3.93 µM (inactive)

Q: What about the GI50 [60] of the same molecule?
A: 24.7 µM (inactive)

Q: And the GI50 [61]?
A: 9.4 µM (inactive)

Q: And the GI50 [62]?
A: 15.6 µM (inactive)

Q: And the GI50 [63]?
A: 1.58 µM (inactive)

Q: What about the GI50 [64] of the same molecule?
A: 1.69 µM (inactive)

Q: What about the GI50 [65] of the same molecule?
A: 4.63 µM (inactive)

Q: What about the GI50 [66] of the same molecule?
A: 1.65 µM (inactive)

Q: What about the GI50 [67] of the same molecule?
A: 4 µM (inactive)
